Target: C-C chemokine receptor type 5 (Homo sapiens, UniProt P51681)
Assay: Antagonist activity at Homo sapiens (human) CCR5 receptor

Chain of C-C chemokine receptor type 5 (P51681 whole entry): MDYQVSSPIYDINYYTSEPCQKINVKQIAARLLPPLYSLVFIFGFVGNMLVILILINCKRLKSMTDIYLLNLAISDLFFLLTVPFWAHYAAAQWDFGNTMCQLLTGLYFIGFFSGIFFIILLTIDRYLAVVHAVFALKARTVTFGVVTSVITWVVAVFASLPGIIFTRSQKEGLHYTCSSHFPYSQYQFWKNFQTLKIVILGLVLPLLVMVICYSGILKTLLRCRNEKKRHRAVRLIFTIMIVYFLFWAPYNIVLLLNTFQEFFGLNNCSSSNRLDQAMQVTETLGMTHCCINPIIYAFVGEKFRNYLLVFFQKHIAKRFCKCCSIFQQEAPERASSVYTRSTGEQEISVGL

`Cc1cccc(C)c1NC(=O)NCC1(O)CCC(Cc2cc(Br)ccc2OCc2ccc(Cl)cc2)CC1` (stereo not drawn) was tested. Which IC50 did it give?
The IC50 was 47 nM.

With `Brc1ccc(COc2ccc(Br)cc2N2CCOCC2)cc1` as the compound, how does the IC50 read?
The IC50 was 1000 nM.

With `Cc1ccc(NC(=O)NCC2(O)CCC(Cc3cc(Br)ccc3OCc3ccc(Cl)cc3)CC2)cc1` (stereo not drawn) as the compound, how does the IC50 read?
The IC50 was 1500 nM.

How did the IC50 turn out when `N=C(N)N/N=C/c1cc(Br)ccc1OCc1ccc(Cl)cc1` was run?
The IC50 was 600 nM.

Which IC50 does the source give for `CCN(CC)c1cc(Br)ccc1OCc1ccc(Cl)cc1` here?
Its IC50 is 1400 nM.

How did the IC50 turn out when `N=C(N)N/N=C/c1cc(Br)ccc1OCc1ccc(F)c(F)c1` was run?
Its IC50 is 3700 nM.

How did the IC50 turn out when `CCc1cccc(CC)c1NC(=O)NCC1(O)CCC(Cc2cc(Br)ccc2OCc2ccc(Cl)cc2)CC1` (stereo not drawn) was run?
The IC50 was 11 nM.

How did the IC50 turn out when `CN(C)c1cc(Br)ccc1OCc1ccc(Cl)cc1` was run?
The IC50 was 600 nM.

`N=C(N)N/N=C/c1cc(Br)ccc1OCc1cccc(Cl)c1` was tested. Which IC50 did it give?
The IC50 was 839 nM.

With `CC(C)c1cccc(C(C)C)c1NC(=O)NCC1(O)CCC(Cc2cc(Br)ccc2OCc2ccc(Cl)cc2)CC1` (stereo not drawn) as the compound, how does the IC50 read?
The IC50 was 35 nM.

For `O=C(NCC1(O)CCC(Cc2cc(Br)ccc2OCc2ccc(Cl)cc2)CC1)Nc1c(F)cccc1F` (stereo not drawn), which IC50 is on record?
Its IC50 is 320 nM.

How did the IC50 turn out when `CC/C(=N\NC(=N)N)c1cc(Br)ccc1OCc1ccc(Cl)cc1` was run?
Its IC50 is 400 nM.

For `O=C(NCC1(O)CCC(Cc2cc(Br)ccc2OCc2ccc(Cl)cc2)CC1)Nc1c(Cl)cc(Cl)cc1Cl` (stereo not drawn), which IC50 is on record?
Its IC50 is 450 nM.

`C/C(=N\NC(=N)N)c1cc(Br)ccc1OCc1ccc(C#N)cc1` was tested. Which IC50 did it give?
The IC50 was 92.9 nM.

`CC1CCN(CC2(O)CCN(Cc3cc(Br)ccc3OCc3ccc(Cl)cc3)CC2)CC1` was tested. Which IC50 did it give?
The IC50 was 210 nM.

With `Cc1cc(Br)cc(C)c1NC(=O)NCC1(O)CCC(Cc2cc(Br)ccc2OCc2ccc(Cl)cc2)CC1` (stereo not drawn) as the compound, how does the IC50 read?
The IC50 was 170 nM.

`O=C(NCC1(O)CCC(Cc2cc(Br)ccc2OCc2ccc(Cl)cc2)CC1)Nc1c(Cl)cccc1Cl` (stereo not drawn) was tested. Which IC50 did it give?
The IC50 was 57 nM.

`Cc1cc(C)c(NC(=O)NCC2(O)CCC(Cc3cc(Br)ccc3OCc3ccc(Cl)cc3)CC2)c(C)c1` (stereo not drawn) was tested. Which IC50 did it give?
The IC50 was 100 nM.
